Laboratory results reported in ChEMBL document CHEMBL1141489, “A highly efficient route to enantiomerically pure l-N-Bz-Pmp(t-Bu)2-OH and incorporation into a peptide-based protein tyrosine phosphatase inhibitor” (Bioorg Med Chem Lett, 2008).
pIC50: −log10 of the molar value. The source made the active and inactive calls. The rule behind the calls is not given here. Square brackets hold non-standard residues; d marks the D form. Peptide text beside a SMILES is read from it. Pmp = N[C@@H](Cc1ccc(CP(=O)(O)O)cc1)C(=O)O

Columns and labels:
[1] = target: T1, Receptor-type tyrosine-protein phosphatase C (Homo sapiens, UniProt P08575); experiment: Inhibition of CD45
T1 sequence (P08575 whole entry): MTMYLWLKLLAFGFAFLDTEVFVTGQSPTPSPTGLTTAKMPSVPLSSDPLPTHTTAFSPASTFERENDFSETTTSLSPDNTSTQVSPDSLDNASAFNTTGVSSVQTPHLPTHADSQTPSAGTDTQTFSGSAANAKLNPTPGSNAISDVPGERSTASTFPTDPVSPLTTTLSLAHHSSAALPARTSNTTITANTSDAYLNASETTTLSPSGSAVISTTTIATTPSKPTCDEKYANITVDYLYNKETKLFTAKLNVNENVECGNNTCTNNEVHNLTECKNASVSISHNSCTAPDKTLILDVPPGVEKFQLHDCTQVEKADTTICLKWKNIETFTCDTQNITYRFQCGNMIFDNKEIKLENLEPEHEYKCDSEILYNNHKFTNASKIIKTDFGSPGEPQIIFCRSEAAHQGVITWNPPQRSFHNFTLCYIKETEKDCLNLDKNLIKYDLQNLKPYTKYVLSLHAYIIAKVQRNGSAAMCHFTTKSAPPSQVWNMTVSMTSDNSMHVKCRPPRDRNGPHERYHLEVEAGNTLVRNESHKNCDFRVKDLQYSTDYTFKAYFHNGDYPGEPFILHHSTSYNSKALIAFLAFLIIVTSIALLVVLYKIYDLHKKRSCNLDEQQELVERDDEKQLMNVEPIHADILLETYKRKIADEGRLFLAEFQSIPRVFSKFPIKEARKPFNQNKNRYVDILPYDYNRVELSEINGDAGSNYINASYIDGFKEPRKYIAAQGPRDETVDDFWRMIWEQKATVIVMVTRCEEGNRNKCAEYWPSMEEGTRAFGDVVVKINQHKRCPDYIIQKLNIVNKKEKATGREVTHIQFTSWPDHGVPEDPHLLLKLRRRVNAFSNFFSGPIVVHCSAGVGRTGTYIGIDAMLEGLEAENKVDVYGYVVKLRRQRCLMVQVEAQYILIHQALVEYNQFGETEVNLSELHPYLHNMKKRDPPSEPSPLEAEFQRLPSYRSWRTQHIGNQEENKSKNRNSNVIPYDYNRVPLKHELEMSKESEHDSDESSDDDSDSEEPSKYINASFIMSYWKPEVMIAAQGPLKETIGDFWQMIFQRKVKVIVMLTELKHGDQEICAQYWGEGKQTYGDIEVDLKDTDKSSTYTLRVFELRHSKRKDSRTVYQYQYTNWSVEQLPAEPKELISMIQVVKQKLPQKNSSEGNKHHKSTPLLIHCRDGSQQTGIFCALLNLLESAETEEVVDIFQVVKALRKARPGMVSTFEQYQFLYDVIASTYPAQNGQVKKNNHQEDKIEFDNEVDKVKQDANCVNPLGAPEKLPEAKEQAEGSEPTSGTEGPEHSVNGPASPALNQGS

[2] = target: T2, Tyrosine-protein phosphatase non-receptor type 2 (Homo sapiens) (UniProt P17706); experiment: Inhibition of TCPTP upto 120 uM
T2 sequence (whole entry): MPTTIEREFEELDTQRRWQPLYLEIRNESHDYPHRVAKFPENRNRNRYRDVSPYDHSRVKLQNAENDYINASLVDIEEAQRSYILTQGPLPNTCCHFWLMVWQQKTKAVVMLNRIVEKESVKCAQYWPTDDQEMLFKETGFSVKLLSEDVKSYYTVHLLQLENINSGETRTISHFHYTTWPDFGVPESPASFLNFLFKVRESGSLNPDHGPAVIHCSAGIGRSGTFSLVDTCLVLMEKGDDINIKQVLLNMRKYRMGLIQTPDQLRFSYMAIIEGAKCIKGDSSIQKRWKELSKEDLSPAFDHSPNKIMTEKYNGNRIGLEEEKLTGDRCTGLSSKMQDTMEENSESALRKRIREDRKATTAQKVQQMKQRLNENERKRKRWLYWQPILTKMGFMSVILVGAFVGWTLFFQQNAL

CC(=O)N[C@H](C(=O)N[C@@H](CCC(=O)O)C(=O)NCC(=O)N[C@@H](CCC(N)=O)C(=O)N[C@@H](Cc1ccc(CP(=O)(O)O)cc1)C(=O)N[C@@H](CCC(N)=O)C(=O)N1CCC[C@H]1C(=O)N[C@@H](CCC(N)=O)C(=O)N1CCC[C@H]1C(N)=O)[C@@H](C)O (Ac-TEGQ[Pmp]QPQP-NH2)
pIC50 [1]: 4.00
Activity [2]: inactive
